How the values were obtained:
APPSwe/PS1 mice = test: T-water maze; type: in vivo, mouse; details: for T maze reversal test compared with group 1 (PBS): 12x weekly; for spatial memory / behaviour in T water maze compared to non-treated mice: twelve weekly injections, CRX 20 μg i.p., 3D MPL 50 μg i.p., AS01B 1/10th human dose i.m.
Description: Five groups of APPSwe/PS1 mice have received one a week for a period of 12 weeks the following treatment: • Gr1: APPSwe/PS1+NaCl 0.9% n(=20), i.p. injections • Gr4: APPSwe/PS1+CRX527 (20 μg/mouse, 130 μl, n=10), i.p. injections • Gr5: APPSwe/PS1+CRX601 (20 μg/mouse, 130 μl, n=10), i.p. injections • Gr6: APPSwe/PS1+3D MPL (50 μg/mouse, 130 μl, n=10), i.p. injections • Gr8 APPSwe/PS1+AS15 • Gr9: APPSwe/PS1+AS01B ( 1/10th of human dose μg/kg, 50 μl, n=10), i.m. injections
Mice were tested during the “light on” phase of the day. Behavioral experimenter was blinded to the genetic and treatment status of animals. To assess hippocampal-dependent spatial learning and memory, mice were trained in the T-water maze task. In this paradigm, we evaluate the mouse's ability to remember the spatial location of submerged platform. The T-maze apparatus (length of stem, 64 cm; length of arms, 30 cm; width, 12 cm; height of walls, 16 cm) was made of clear fiberglass and filled with water (23±1° C.) at a height of 12 cm. A platform (11×11 cm) was placed at the end of the target arm and was submerged 1 cm below the surface. The acquisition phase allows to evaluate animals for left-right spatial learning. During the first two trials, platforms were placed on each arms of the maze to test the spontaneous turning preference of the mouse. After these two trials, the least chosen arm was reinforced by the escape platform. The mice were placed in the stem of the T-maze and choose to swim either left or right until they found the submerged platform and escape to it, to a maximum of 60 s. After reaching the platform, the mice remained on it for 20 s and then were immediately placed back in the maze. […] Repeated trials were presented on the same day up to a maximum of 48 trials. A rest period of at least 10-15 min intervened between each block of 10 trials. A mouse was considered to have learned the task when it made no errors in a block of five consecutive trials. The reversal learning phase was then conducted 48 h later.
During this phase, the same protocol was repeated, except that the mice were trained to find the escape platform on the opposite side to that on which they had learned on acquisition phase. The number of trials to reach the criterion (five of five correct choices made on consecutive trials) was measured as well as the latency to find the escape platform.
Further experiments were carried out using the following groups.

TLR2 mRNA = test: In situ hybridization of TLR2 transcript in brain after peripheral injection; type: in vivo, C57BL/6J mice; details: 24 hr after single i.p. injection; CRX compounds 20 μg/mouse, 3D MPL 50 μg/mouse
From the text: In order to evaluate the innate activation within the brain, we have performed in situ hybridization 24 hr following the systemic injection of either 3D MPL, CRX524 or CRX527 or CRX601 using the intra peritoneal route.
Specifically GSK Bio injected different compositions in C57BL/6J mice for evaluating the potency of those adjuvants after 24 hrs of peripheral injection to trigger microglial cell activation in the brain. Animal study groups were:
GSK Bio performed the injections in C57BL6 mice at the Centre de biologie expérimentale de I'INRS-IAF under an IACUC approved protocol. Twenty four hours after the injections, mice were deeply anesthetized via an intraperitoneal injection of a mixture of ketamine hydrochloride and xylazine and then perfused intracardially with ice-cold 0.9% saline, followed by 4% paraformaldehyde (PFA) in a 0.1 M borax buffer, pH 9.5, at 4° C. Brains were rapidly removed from skulls, postfixed in PFA 1-3 d at 4° C. and sent to the CHUL. They were then cryoprotected in 10% sucrose diluted in PFA overnight. The frozen brains were sectioned into 25-μm-thick coronal sections using a microtome (Reichert-Jung, Cambridge Instruments Company), and slices were collected in a cold cryoprotectant solution (0.05 M sodium phosphate buffer, pH 7.3, 30% ethylene glycol, and 20% glycerol, stored at −20° C.).
Every 12th section of brain slices, starting from the end of the olfactory bulb to the end of the cerebral cortex, was mounted on Colorfrost/Plus microscope slides (Fisher Scientific). In situ hybridization histochemical localization of TLR2 transcript was performed using ^35S-labeled cRNA probe. […]
Dual labeling combining immunocytochemistry and in situ hybridization was performed as described previously (Laflamme and Rivest, 2001; Nadeau and Rivest, 2000 infra) to localize TLR2 transcripts in microglia (iba-1 staining). […] The images depicted by the different panels are representative of the signal detected on the slides for each group of mice.

Molecule	T maze reversal test compared with group 1 (PBS) (APPSwe/PS1 mice; group 3: i.m. 2 ug per mouse)	spatial memory / behaviour in T water maze compared to non-treated mice (APPSwe/PS1 mice)	spatial memory / behaviour in T water maze compared to non-treated mice (APPSwe/PS1 mice; listed as CRX 601)	TLR2 mRNA activation in ventricular regions and choroid plexus (TLR2 mRNA)	spatial memory / behaviour in T water maze compared to non-treated mice (APPSwe/PS1 mice; listed as CRX 527)	T maze reversal test compared with group 1 (PBS) (APPSwe/PS1 mice; group 9: intra peritoneal 50 ug per mouse)	T maze reversal test compared with group 1 (PBS) (APPSwe/PS1 mice; group 10: i.m. 5 ug per mouse)	spatial memory / behaviour in T water maze compared to non-treated mice (APPSwe/PS1 mice; listed as 3D-MPL)
CCCCCCCCCCC[C@H](CC(=O)N[C@H]1[C@H](OC[C@H](NC(=O)C[C@@H](CCCCCCCCCCC)OCCCCCCCCCC)C(=O)O)O[C@H](CO)[C@@H](OP(=O)(O)O)[C@@H]1OC(=O)C[C@@H](CCCCCCCCCCC)OCCCCCCCCCC)OCCCCCCCCCC [CRX601]	significantly improved	spatial memory improvement	significant improvements	clearly activated				
CCCCCCCCCCC[C@H](CC(=O)N[C@H]1[C@H](OC[C@H](NC(=O)C[C@@H](CCCCCCCCCCC)OC(=O)CCCCCCCCC)C(=O)O)O[C@H](CO)[C@@H](OP(=O)(O)O)[C@@H]1OC(=O)C[C@@H](CCCCCCCCCCC)OC(=O)CCCCCCCCC)OC(=O)CCCCCCCCC [CRX527]		spatial memory improvement		clearly activated	significant improvements			
3-O-desacyl-4′-monophosphoryl lipid A [3D MPL]		spatial memory improvement		lesser extent		significantly improved	significantly improved	significant improvements
